Patent publication US20240368351A1, “FACTORS CONTROLLING DRUG RELEASE IN CROSS-LINKED POLY(VALEROLACTONE) BASED MATRICES” (Pendant Biosciences, Inc., priority 2019, published 2024)
Converted amounts (≈) assume the structure as drawn.

Tests used:
[1] = In vitro drug release from cross-linked matrices (CPs), sample-and-separate, with mathematical modeling (Fick diffusion); type: physicochemical
Experimental: Evaluation of in vitro drug release: impact of the nature of the drug, polymer and release media: In the in vitro release studies the impact of a number of variables was evaluated including nature of the drug, compatibility between the drug and the polymer matrix, degree of crystallinity of the matrix, M.W. of the copolymer, cross-linking density and the composition of the release media. The commonly used, sample-and-separate method was employed to evaluate drug release from the cross-linked matrices. D'Souza, S. S.; DeLuca, P. P. Methods to Assess in vitro Drug Release from Injectable Polymeric Particulate Systems. Pharmaceutical Research 2006, 23, 3, 460-474.
The Peppas-Sahlin model, where diffusion and polymer relaxation are known to be the underlying drivers of drug release provided the best fit in terms of R^2adjusted (FIGS. 8A and 8C) For cylindrical shaped matrices, Fickian diffusion is considered to be operative when the ratio of diameter to thickness (n or m) of the matrix is equal to or less than 0.45. If the value is […], the drug release mechanism is considered non-Fickian; whereas, if n is 0.89 drug release is considered to be case II transport. Herein, the dimension and the geometry of the matrices evaluated have a value of 0.78<n<0.80. […]
Protocols for drug analysis by HPLC and cytotoxicity evaluation of the cross-linked matrices: The drug release was analyzed by reverse phase HPLC using an Agilent 1200 HPLC system with Agilent ChemStation software, an XDB C18 column (150×4.6 mm i.d+guard column) and UV detection. […] Drug concentrations were quantified using calibration curves using standards that ranged in concentration from 1 to 100 μg/ml (0.9986≤R^2≤1).
The CPs were incubated at 37° C. under constant stirring and at pre-determined time points, a 1 ml aliquout was removed and replaced with 1 mL of fresh media and the samples were immediately frozen at −20° C. for storage prior to HPLC analysis. […] The drug was reconstituted in 1 ml of the HPLC mobile phase and analyzed to correct the DLC and release curves. […]

[2] = Solubility of Drug X in organic solvents and water; type: physicochemical
[3] = Stability of Drug X freebase in PBS with or without SDS by HPLC; type: physicochemical
Text: The appearance of second peak correlates with concentration of the drug.

[4] = cited from earlier work
[5] = Drug solubility in different release media (PBS with Tween 80 or SDS); type: physicochemical; conditions: release media (PBS with Tween 80 or SDS), 37 °C, pH 7.4, aqueous with cosolvent or surfactant or cyclodextrin, thermodynamic from solid
Experimental: Mikkelsen, L. M., Enzyme solubility in liquid detergent and use of detergent composition. […] Crotts, G.; Park, T. G. Protein delivery from poly(lactic-co-glycolic acid) biodegradable microspheres: Release kinetics and stability issues. […] FDA.
The solutions were centrifuged at 8000 rpm for 10 minutes, and a 1 ml aliquot was withdrawn, filtered through a 0.45 μm nylon membrane, and analyzed by HPLC.

[6] = PBS with SDS, 120 μg/ml, 2 days
[7] = PBS with SDS, 120 μg/ml, 3 days
[8] = PBS with SDS, 120 μg/ml, 4 days

CC(=O)Nc1ccc(O)cc1 [Acetaminophen, acetaminophen]
period of release ([1]; from all matrices, PBS with 0.5% SDS, 37° C.): less than a week

CC(C)OC(=O)[C@H](C)N[P@](=O)(CO[C@H](C)Cn1cnc2c(N)ncnc21)Oc1ccccc1 [Drug X freebase]
Solubility EtOH ([2]; 5 mg/100 μl, cell wraps: 'Soluble, and' / 'transparent'): Soluble, and | area of the HPLC peak corresponding to Drug X freebase as a function of time ([3]; PBS with 0.5% SDS): constantly decreased as a function of time | Area (Drug X freebase peak) ([3]; PBS with SDS, 12 μg/ml, 1 hr): 191.5 | Area (Drug X freebase peak) ([3]; PBS with SDS, 12 μg/ml, 3 hrs): 185.7 | Area (Drug X freebase peak) ([3]; PBS with SDS, 12 μg/ml, 7 hrs): 182.8 | Area (Drug X freebase peak) ([3]; PBS with SDS, 12 μg/ml, 1 day): 179.2 | Area (Drug X freebase peak) ([3]; PBS with SDS, 12 μg/ml, 2 days): 178.7 | Area (Drug X freebase peak) ([3]; PBS with SDS, 12 μg/ml, 3 days): 155.2 | Area (Drug X freebase peak) ([3]; PBS with SDS, 12 μg/ml, 4 days): 155.8 | Area (Drug X freebase peak) ([3]; PBS with SDS, 12 μg/ml, T = 0): 192.6 | Area (2nd) second peak ([3]; PBS with SDS, 60 μg/ml, 1 hr): (99.6) | Area (Drug X freebase peak) ([3]; PBS with SDS, 60 μg/ml, 1 hr): 934.7 | Area (2nd) second peak ([3]; PBS with SDS, 60 μg/ml, 3 hrs): (85.18) | Area (Drug X freebase peak) ([3]; PBS with SDS, 60 μg/ml, 3 hrs): 909.05 | Area (2nd) second peak ([3]; PBS with SDS, 60 μg/ml, 7 hrs): (95.5) | Area (Drug X freebase peak) ([3]; PBS with SDS, 60 μg/ml, 7 hrs): 906.7 | Area (2nd) second peak ([3]; PBS with SDS, 60 μg/ml, 1 day): (87.6) | Area (Drug X freebase peak) ([3]; PBS with SDS, 60 μg/ml, 1 day): 867.8 | Area (2nd) second peak ([3]; PBS with SDS, 60 μg/ml, 2 days): (77.0) | Area (Drug X freebase peak) ([3]; PBS with SDS, 60 μg/ml, 2 days): 783.7 | Area (2nd) second peak ([3]; PBS with SDS, 60 μg/ml, 3 days): (72.3) | Area (Drug X freebase peak) ([3]; PBS with SDS, 60 μg/ml, 3 days): 712.2 | Area (2nd) second peak ([3]; PBS with SDS, 60 μg/ml, 4 days): (68.1) | Area (Drug X freebase peak) ([3]; PBS with SDS, 60 μg/ml, 4 days): 677.3 | Area (2nd) second peak ([3]; PBS with SDS, 60 μg/ml, T = 0): (73.9) | Area (Drug X freebase peak) ([3]; PBS with SDS, 60 μg/ml, T = 0): 929.6 | Area (2nd) second peak ([3]; PBS with SDS, 120 μg/ml, 1 hr): (223.0) | Area (Drug X freebase peak) ([3]; PBS with SDS, 120 μg/ml, 1 hr): 1768.4 | Area (2nd) second peak ([3]; PBS with SDS, 120 μg/ml, 3 hrs): (219.47) | Area (Drug X freebase peak) ([3]; PBS with SDS, 120 μg/ml, 3 hrs): 1764.9 | Area (2nd) second peak ([3]; PBS with SDS, 120 μg/ml, 7 hrs): (212.8) | Area (Drug X freebase peak) ([3]; PBS with SDS, 120 μg/ml, 7 hrs): 1707.5 | Area (2nd) second peak ([3]; PBS with SDS, 120 μg/ml, 1 day): (189.8) | Area (Drug X freebase peak) ([3]; PBS with SDS, 120 μg/ml, 1 day): 1613.5 | Area (2nd) second peak [3, 6]: (193.9) | Area (Drug X freebase peak) [3, 6]: 1539.2 | Area (2nd) second peak [3, 7]: (167.5) | Area (Drug X freebase peak) [3, 7]: 1401.2 | Area (2nd) second peak [3, 8]: (160.3) | Area (Drug X freebase peak) [3, 8]: 1318.3 | Area (2nd) second peak ([3]; PBS with SDS, 120 μg/ml, T = 0): (218.0) | Area (Drug X freebase peak) ([3]; PBS with SDS, 120 μg/ml, T = 0): 1849.3 | HPLC peak corresponding to Drug X free base as a function of time ([3]; PBS without SDS, regardless of concentration): constantly decreasing as a function of time | Area (Drug X freebase peak) ([3]; Table 47, PBS with SDS, 12 μg/ml, 1 hr): 164.51 | Area (Drug X freebase peak) ([3]; Table 47, PBS with SDS, 12 μg/ml, 3 hrs): 162.2 | Area (Drug X freebase peak) ([3]; Table 47, PBS with SDS, 12 μg/ml, 7 hrs): 161.0 | Area (Drug X freebase peak) ([3]; Table 47, PBS with SDS, 12 μg/ml, 1 day): 132.2 | Area (Drug X freebase peak) ([3]; Table 47, PBS with SDS, 12 μg/ml, 2 days): 103.6 | Area (Drug X freebase peak) ([3]; Table 47, PBS with SDS, 12 μg/ml, 3 days): 84.2 | Area (Drug X freebase peak) ([3]; Table 47, PBS with SDS, 12 μg/ml, 4 days): 57.5 | Area (Drug X freebase peak) ([3]; Table 47, PBS with SDS, 12 μg/ml, T = 0): 169.2 | Area (Drug X freebase peak) ([3]; Table 47, PBS with SDS, 60 μg/ml, 1 hr): 897.8 | Area (Drug X freebase peak) ([3]; Table 47, PBS with SDS, 60 μg/ml, 3 hrs): 875.2 | Area (Drug X freebase peak) ([3]; Table 47, PBS with SDS, 60 μg/ml, 7 hrs): 850.6 | Area (Drug X freebase peak) ([3]; Table 47, PBS with SDS, 60 μg/ml, 1 day): 663.9 | Area (Drug X freebase peak) ([3]; Table 47, PBS with SDS, 60 μg/ml, 2 days): 511.8 | Area (Drug X freebase peak) ([3]; Table 47, PBS with SDS, 60 μg/ml, 3 days): 361.7 | Area (Drug X freebase peak) ([3]; Table 47, PBS with SDS, 60 μg/ml, 4 days): 303.9 | Area (Drug X freebase peak) ([3]; Table 47, PBS with SDS, 60 μg/ml, T = 0): 903.4 | Area (Drug X freebase peak) ([3]; Table 47, PBS with SDS, 120 μg/ml, 1 hr): 1797.8 | Area (Drug X freebase peak) ([3]; Table 47, PBS with SDS, 120 μg/ml, 3 hrs): 1790.0 | Area (Drug X freebase peak) ([3]; Table 47, PBS with SDS, 120 μg/ml, 7 hrs): 1687.7 | Area (Drug X freebase peak) ([3]; Table 47, PBS with SDS, 120 μg/ml, 1 day): 1319.2 | Area (Drug X freebase peak) ([3]; Table 47, PBS with SDS, 120 μg/ml, 2 days): 1023.1 | Area (Drug X freebase peak) ([3]; Table 47, PBS with SDS, 120 μg/ml, 3 days): 722.9 | Area (Drug X freebase peak) ([3]; Table 47, PBS with SDS, 120 μg/ml, 4 days): 593.4 | Area (Drug X freebase peak) ([3]; Table 47, PBS with SDS, 120 μg/ml, T = 0): 1841.8

CC(C)OC(=O)[C@H](C)N[P@](=O)(CO[C@H](C)Cn1cnc2c(N)ncnc21)Oc1ccccc1.CC(C)OC(=O)[C@H](C)N[P@](=O)(CO[C@H](C)Cn1cnc2c(N)ncnc21)Oc1ccccc1.O=C(O)/C=C/C(=O)O [Drug X fumarate]
Solubility in EtOH/DMSO (50/50) ([2]; 5 mg per 100 mL or μL): Soluble, and | Solubility in DMSO/Water (50/50) ([2]; 5 mg per 200 mL or μL): Insoluble | Solubility in Water ([2]; 5 mg per 200 mL or μL): Insoluble

CC1(C)S[C@@H]2[C@H](NC(=O)Cc3ccccc3)C(=O)N2[C@H]1C(=O)O [Penicillin G, reference compound]
Log P [4]: 1.83 | Water solubility [4]: water (0.21 mg/mL) | Water solubility (words) [4]: Slightly soluble in | pKa [4]: 3.96

CC(C)(C)CC(=O)OCC(=O)[C@@]12OC(C)(C)O[C@@H]1C[C@H]1[C@@H]3CCC4=CC(=O)C=C[C@]4(C)[C@@]3(F)[C@@H](O)C[C@@]12C [Triamcinolone hexacetonide, triamcinolone hexacetonide]
solubility at 48 h [5]: 37.9 ± 0.4 µg/mL (≈ 71.1 µM) | cumulative release from the drug-loaded crosslinked copolymer ([1]; after 34 days, embodiment statement): about 42 wt %
